Source: article PMC6445550 (Analytical biochemistry, 2014)

Target: T1, Erf2 (Saccharomyces cerevisiae, UniProt Q06551)
T1 sequence (Q06551 1-359): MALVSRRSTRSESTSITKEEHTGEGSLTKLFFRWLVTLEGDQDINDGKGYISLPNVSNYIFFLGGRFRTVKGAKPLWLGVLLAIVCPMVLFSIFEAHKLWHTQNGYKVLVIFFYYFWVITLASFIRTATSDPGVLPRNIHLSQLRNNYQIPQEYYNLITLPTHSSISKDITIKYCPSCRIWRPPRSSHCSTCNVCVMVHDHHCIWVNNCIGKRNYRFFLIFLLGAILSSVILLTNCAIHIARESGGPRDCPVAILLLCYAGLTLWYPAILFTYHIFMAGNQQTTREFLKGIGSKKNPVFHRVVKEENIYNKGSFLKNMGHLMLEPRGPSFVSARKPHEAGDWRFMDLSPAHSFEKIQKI
Assay: fluorescence coupled autopalmitoylation assay with purified complex
Type: biochemical

For `CCCCCCCCCCCCCCC(Br)C(=O)O` (stereo not shown) [2-BP, 2-bromopalmitate], the IC50 was about 100 µM.
